This test has as its system MPTP-(1-methyl-4-phenyl-1,2,3,6-tetrahydropyridine) treated monkeys. Put plainly: Parkinsonian score in MPTP-treated monkeys after administration of sunipetron. In kind it is in vivo. Particulars: 0.5 mg/kg or 1.0 mg/kg, rated at 4 time points vs vehicle, estimated plasma levels (FIG. 1). As for the experimental part:
Neurol., 35:655-661, 1994, and Klockgether et al., Ann. Neurol., 30:717-723, 1991.
The behavioral effects of administration of sunipetron on parkinsonian score in MPTP-(1-methyl-4-phenyl-1,2,3,6-tetrahydropyridine) treated monkeys was determined. The methods employed are described in Greenemyre et al., supra and Klockgether et al., supra.
Briefly, parkinsonian monkeys were administered 0.5 mg/kg or 1.0 mg/kg of sunipetron and the severity of parkinsonian symptoms was rated at each of 4 time points after drug administration as compared with administration of a control solution (“Vehicle”).
The minimum effective plasma level was approximately 100 ng/ml.

With `O=C1CCC(=O)N1C[C@H]1CC[C@H]2CN(c3ncccn3)CCN2C1` [sunipetron], the “minimum effective plasma level (reduction in parkinsonian score)” value is listed as “approximately 100 ng/ml” and the “plasma level at which the maximum reduction in parkinsonian score was attained” value is “approximately 200 ng/ml”.

The record behind these values is patent US6608064B2, “Pharmaceutical agents for the treatment of Parkinson's disease, ADHD and microadenomas” (Pfizer Inc, priority 1998, dated 2003).
